Assay results taken from patent US20250326744A1, “PIPERAZINE DERIVATIVE OR SALT THEREOF, AND PHARMACEUTICAL COMPOSITION” (priority 2022, published 2025).
Counter-ions that a name gives are not always drawn.

Columns and labels:
mexB (PA) strain = assay: Combinational effect with antibacterial agent against Pseudomonas aeruginosa (Test Examples 2 and 4): mexB (PA) strain with LVFX, TC or AZT at 1/4 MIC, EC99; assay type: cell-based; settings: mexB (PA) strain, Test Example 4; for EC99, combinational effect with AZT, mexB (PA): combined with AZT at 1/4 MIC; for EC99, combinational effect with LVFX, mexB (PA): combined with LVFX at 1/4 MIC; for EC99, combinational effect with TC, mexB (PA): combined with TC at 1/4 MIC
Outline: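 P. aeruginosa mexB (PA) strain, lacking MexCD-OprJ, MexEF-OprN and MexXY and overexpressing MexAB-OprM, grown 16–20 h in CAMHB (10^4–5 CFU/well) with LVFX, TC or AZT at ¼ MIC plus test compound at 0–800 μM. Growth read as OD595; EC99 is the lowest compound concentration giving ≥99% growth inhibition.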

S-3769 strain = assay: Combinational effect with antibacterial agent against Pseudomonas aeruginosa (Test Examples 2 and 4): S-3769 strain with AMK or GM at 1/4 MIC, EC99; assay type: cell-based; settings: S-3769 strain, Test Example 4; for EC99, combinational effect with AMK, S-3769 strain: combined with AMK at 1/4 MIC; for EC99, combinational effect with GM, S-3769 strain: combined with GM at 1/4 MIC
Outline: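 P. aeruginosa S-3769 (clinical isolate, MexY overexpressed) grown 16–20 h in CAMHB, 10^4 to 5 CFU/well, with AMK or GM at ¼ MIC plus test compound 0–800 μM. Growth read as OD595; EC99 is the lowest compound concentration giving ≥99% growth inhibition.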

| Compound | EC99, combinational effect with AZT, mexB (PA) (mexB (PA) strain) | EC99, combinational effect with LVFX, mexB (PA) (mexB (PA) strain) | EC99, combinational effect with TC, mexB (PA) (mexB (PA) strain) | EC99, combinational effect with AMK, S-3769 strain (S-3769 strain) | EC99, combinational effect with GM, S-3769 strain (S-3769 strain) |
| --- | --- | --- | --- | --- | --- |
| CSc1ccccc1CN1CCN(C(=O)[C@H](N)C2CCN(CCc3cc(Cl)ccc3C3=CCNCC3)CC2)CC1 [Example 602, Hydrochloride of (R)-2-amino-2-(1-(5-chloro-2-(1,2,3,6-tetrahydropyridin-4-yl)phenethyl)piperidin-4-yl)-1-(4-(2-(methylthio)benzyl)piperazin-1-yl) ethan-1-one] | B (25 μM<EC99≤100 μM) | S (EC99≤12.5 μM) | S (EC99≤12.5 μM) | S (EC99≤12.5 μM) | S (EC99≤12.5 μM) |
| CCSc1cc(F)ccc1CN1CCN(C(=O)[C@H](N)C2CCN(CCc3cc(Cl)ccc3-c3ccccc3N)CC2)CC1 [Example 604, Hydrochloride of (R)-2-amino-2-(1-(2-(2′-amino-4-chloro-[1,1-biphenyl]-2-yl)ethyl)piperidin-4-yl)-1-(4-(2-(ethylthio)-4-fluorobenzyl)piperazin-1-yl) ethan-1-one] | S (EC99≤12.5 μM) | S (EC99≤12.5 μM) | S (EC99≤12.5 μM) | A (12.5 μM<EC99≤25 μM) | A (12.5 μM<EC99≤25 μM) |
| CCSc1cc(F)ccc1CN1CCN(C(=O)[C@H](N)C2CCN(CCc3cc(Cl)ccc3C3=CCCNC3)CC2)CC1 [Example 605, Hydrochloride of (R)-2-amino-2-(1-(5-chloro-2-(1,2,5,6-tetrahydropyridin-3-yl)phenethyl)piperidin-4-yl)-1-(4-(2-(cthylthio)-4-fluorobenzyl)piperazin-1-yl) ethan-1-one] | B (25 μM<EC99≤100 μM) | S (EC99≤12.5 μM) | S (EC99≤12.5 μM) | S (EC99≤12.5 μM) | S (EC99≤12.5 μM) |
| CCSc1cc(F)ccc1CN1CCN(C(=O)[C@H](N)C2CCN(CCc3cc(Cl)ccc3-c3cc(N)cc(F)c3)CC2)CC1 [Example 606, Hydrochloride of (R)-2-amino-2-(1-(2-(3′-amino-4-chloro-5′-fluoro-[1,1-biphenyl]-2-yl)ethyl)piperidin-4-yl)-1-(4-(2-(ethylthio)-4-fluorobenzyl)piperazin-1-yl)ethan-1-one] | S (EC99≤12.5 μM) | S (EC99≤12.5 μM) | S (EC99≤12.5 μM) | B (25 μM<EC99≤100 μM) | B (25 μM<EC99≤100 μM) |
| CCSc1cc(F)ccc1CN1CCN(C(=O)[C@H](N)C2CCN(CCc3cc(Cl)ccc3-c3cccc(NC)c3)CC2)CC1 [Example 607, Hydrochloride of (R)-2-amino-2-(1-(2-(4-chloro-3′-(methylamino)-[1,1-biphenyl]-2-yl)ethyl)piperidin-4-yl)-1-(4-(2-(ethylthio)-4-fluorobenzyl)piperazin-1-yl)ethan-1-one] | S (EC99≤12.5 μM) | S (EC99≤12.5 μM) | S (EC99≤12.5 μM) | B (25 μM<EC99≤100 μM) | B (25 μM<EC99≤100 μM) |
| CCSc1cc(F)ccc1CN1CCN(C(=O)[C@H](N)C2CCN(CCc3cscc3-c3ccccc3)CC2)CC1 [Example 608, Hydrochloride of (R)-2-amino-1-(4-(2-(ethylthio)-4-fluorobenzyl)piperazin-1-yl)-2-(1-(2-(4-phenylthiophen-3-yl)ethyl)piperidin-4-yl)ethan-1-one] | B (25 μM<EC99≤100 μM) | B (25 μM<EC99≤100 μM) | B (25 μM<EC99≤100 μM) | B (25 μM<EC99≤100 μM) | B (25 μM<EC99≤100 μM) |
| CCSc1cc(F)ccc1CN1CCN(C(=O)[C@H](N)C2CCN(CCc3cc(Cl)ccc3-c3cc(O)cc(F)c3)CC2)CC1 [Example 609, (R)-2-amino-2-(1-(2-(4-chloro-3′-fluoro-5′-hydroxy-[1,1′-biphenyl]-2-yl)ethyl)piperidin-4-yl)-1-(4-(2-(ethylthio)-4-fluorobenzyl)piperazin-1-yl)ethan-1-one] | S (EC99≤12.5 μM) | S (EC99≤12.5 μM) | S (EC99≤12.5 μM) | S (EC99≤12.5 μM) | S (EC99≤12.5 μM) |
| CSc1ccccc1CN1CCN(C(=O)[C@H](N)C2CCN(CCc3cc(Cl)ccc3-c3cc(O)cc(Cl)c3)CC2)CC1 [Example 610, (R)-2-amino-2-(1-(2-(3′-4-dichloro-5′-hydroxy-[1,1′-biphenyl]-2-yl)ethyl)piperidin-4-yl)-1-(4-(2-(methylthio)benzyl)piperazin-1-yl)ethan-1-one] | S (EC99≤12.5 μM) | S (EC99≤12.5 μM) | S (EC99≤12.5 μM) | S (EC99≤12.5 μM) | S (EC99≤12.5 μM) |
| CSc1ccccc1CN1CCN(C(=O)[C@H](N)C2CCN(CCc3cc(Cl)ccc3-c3cccc(O)c3)CC2)CC1 [Example 611, Hydrochloride of (R)-2-amino-2-(1-(2-(4-chloro-3′-hydroxy-[1,1-biphenyl]-2-yl)ethyl)piperidin-4-yl)-1-(4-(2-(methylthio)benzyl)piperazin-1-yl)ethan-1-one] | S (EC99≤12.5 μM) | S (EC99≤12.5 μM) | S (EC99≤12.5 μM) | S (EC99≤12.5 μM) | B (25 μM<EC99≤100 μM) |
| CSc1ccccc1CN1CCN(C(=O)[C@H](N)C2CCN(CCc3cc(Cl)ccc3-c3cc(O)ccc3F)CC2)CC1 [Example 612, (R)-2-amino-2-(1-(2-(4-chloro-2′-fluoro-5′-hydroxy-[1,1′-biphenyl]-2-yl)ethyl)piperidin-4-yl)-1-(4-(2-(methylthio)benzyl)piperazin-1-yl)ethan-1-one] | S (EC99≤12.5 μM) | S (EC99≤12.5 μM) | S (EC99≤12.5 μM) | S (EC99≤12.5 μM) | S (EC99≤12.5 μM) |
| CCSc1cc(F)ccc1CN1CCN(C(=O)[C@H](N)C2CCN(CCc3cc(Cl)ccc3-c3cc(O)cc(Cl)c3)CC2)CC1 [Example 614, (R)-2-amino-2-(1-(2-(3′,4-dichloro-5′-hydroxy-[1,1′-biphenyl]-2-yl)ethyl)piperidin-4-yl)-1-(4-(2-(ethylthio)-4-fluorobenzyl)piperazin-1-yl)ethan-1-one] | S (EC99≤12.5 μM) | S (EC99≤12.5 μM) | S (EC99≤12.5 μM) | S (EC99≤12.5 μM) | S (EC99≤12.5 μM) |
